Experiment in all cases: cells
What all share (type): functional, cell-based

Assay [1] relates to HeLa. Particulars: Homo sapiens, 120 h.
For assay [2], the system named is HCT-116. Particulars: Homo sapiens, HCT-116, 120 h.
Assay [3] concerns HeLa. Particulars: Homo sapiens, 120 h. This is another data set of the same source.
Assay [4] deals with HCT-116. Particulars: Homo sapiens, HCT-116, 120 h. This is another data set of the same source.
For assay [5], the system named is DLD-1. Particulars: Homo sapiens, DLD-1, 120 h.
Assay [6] relates to HCT-116. Particulars: Homo sapiens, HCT-116, 120 h. The source holds these as a separate data set.
Assay [7] concerns HeLa. Particulars: Homo sapiens, 120 h. This is another data set of the same source.
Assay [8] relates to DLD-1. Particulars: Homo sapiens, DLD-1, 120 h. This is another data set of the same source.
The test system of assay [9] is U2OS. Particulars: Homo sapiens, 120 h.
Assay [10] concerns DLD-1. Particulars: Homo sapiens, DLD-1, 120 h. This is another data set of the same source.
In assay [11] the test system is HeLa. Particulars: Homo sapiens, 120 h. The source holds these as a separate data set.
Assay [12] concerns HCT-116. Particulars: Homo sapiens, HCT-116, 120 h. This is another data set of the same source.

On to `Cc1cc(N2CCOCC2)ccc1Nc1nc(NC2CCCCC2)c2nc[nH]c2n1`, for which the IC50 in assay [1] is 282 nM; in [2], 159 nM; in assay [3] it was > 2000 nM; in [4], 1080 nM; in [5], 75.4 nM; in [6], > 2000 nM. For the same compound, the IC50 was 468 nM in [7]; > 2000 nM in [8]; 106 nM in assay [9]; 183 nM in assay [10]; > 2000 nM in assay [11]; 63 nM in assay [12].
With `c1nc2c(NC3CCCCC3)nc(Nc3ccc(N4CCOCC4)cc3)nc2[nH]1` [REVERSINE], the IC50 in [1] worked out at 290 nM; in [2], 138 nM; in assay [3], 116 nM; in [4], 530 nM; in [5] it was 120 nM; in assay [6], 70 nM. For the same compound, the IC50 in assay [7] was 431 nM; in assay [8], > 2000 nM; in assay [9], 154 nM; in assay [10], 136 nM; in assay [11], 125 nM; in assay [12] it was 78.9 nM.
For `COc1cc(OC2CCN(C)CC2)ccc1Nc1ncc2c(n1)n(C1CCCC1)c(=O)n2C`, the IC50 in assay [1] is 1340 nM; in [2] it was 560 nM; in assay [3], > 5000 nM; in assay [4] it was 3060 nM; in assay [6] it was > 5000 nM; in [7], 3850 nM. Also, the IC50 in assay [8] is > 5000 nM; in assay [10], 719 nM; in [11], 2740 nM.
Turning to `CCc1cccc(CC)c1NC(=O)c1nn(C)c2c1CCc1cnc(Nc3ccc(C(=O)NC4CCN(C)CC4)cc3OC(F)(F)F)nc1-2`, the IC50 in [1] was 433 nM; in assay [2], 171 nM; in assay [3], > 2000 nM; in assay [4], 1620 nM; in [5], 165 nM; in [6], > 2000 nM. In addition, the IC50 in [7] is 1330 nM; in [8], 1020 nM; in assay [9] it was 153 nM; in [10], 198 nM; in [11], 1720 nM; in assay [12], 154 nM.
In the case of `COc1cc(N2CCC(O)CC2)ccc1Nc1nc(Nc2ccccc2S(=O)(=O)C(C)C)c2nc[nH]c2n1`, the half-inhibitory concentration (IC50) in assay [1] was found to be 3420 nM; in assay [2], 1620 nM; in [3] it was 8970 nM; in [4], 3230 nM; in [6], 5400 nM; in assay [7], 4790 nM. The IC50 in [8] is 7930 nM; in assay [10], 2420 nM; in assay [11], 6790 nM.

The IC50 is the point on the concentration scale where inhibition reaches its midpoint. High values mean lower potency, low ones higher potency.

The record behind these values is ChEMBL document CHEMBL5647693, “Molecular basis underlying resistance to Mps1/TTK inhibitors” (Oncogene, 2016).
